This is an account of results in patent publication US20260248791A1, “METHODS FOR TREATING DERMATOMYOSITIS WITH BREPOCITINIB” (priority 2023, published 2026).

In series [1] the test system is Human skeletal muscle myoblasts (HSMM) differentiated into myotubes. Put plainly: IFN-I induced myotube damage (myosin 4 surface area). It counts as cell-based. Conditions: for mean myosin surface area: 48 hours IFN-I. As to the method:
Timeline for Brepocitinib efficacy evaluation for IFN-I induced pathological changes characteristic of DM in vitro. As shown in the schematic image of FIG. 1, human skeletal muscle myoblasts (HSMM) were cultured and differentiated into myotubes then treated with vehicle control or IFN-I (recombinant Human IFN alpha A and Human IFN alpha D) to induce cellular damage. Myotubes were also preincubated for 1 hour with Brepocitinib (1 μM or 130 nM, the latter is equivalent to the average free plasma concentration after administration of 30 mg once-daily) prior to IFN-I treatment. Immunofluorescence staining followed by image analysis to determine myosin 4 surface area were conducted after 48 hours of IFN-I treatment. Human dermal microvascular endothelial cells (HMEC-1) were cultured and, once vascular networks were established, cells were treated with IFN-I or vehicle control. Cells were also preincubated for 1 hour with Brepocitinib. Under light microscopy, 9 hours after treatment, the number of nodes, master segment length, and total mesh area were analyzed.
Human skeletal muscle myoblasts (Lonza, CC-2580) were cultured in SkGM™-2 media (Lonza, CC-3245) and sub-cultured using ReagentPack™ Subculture Reagents (Lonza, CC-5034). They were then differentiated into myotubes by culturing in differentiation medium [DMEM/F12+2% Horse serum (Thermofisher, 16050122)] for 3-5 days until most of the myoblast cells differentiated into multinucleated myotubes. The myotubes were then preincubated with vehicle or Brepocitinib prior to type I interferon (R&D, 11200-2) exposure at concentrations (FIG. 7). After 48 hours of treatment, cells were fixed and stained with Myosin 4 Monoclonal antibody (MF20; Thermofisher, 14-6503-82) and Hoechst for nuclei visualization. The effect on total myotube surface area was evaluated via fluorescent image analysis. […] The effect of type I IFN exposure±Brepocitinib treatment on the number of nodes, master segment length, and total mesh area was evaluated by taking bright-field images every 16 hours.

The nature of series [2]: Dose-response across Phase 2 studies. As to conditions: normalized responder rate vs average daily dose across Phase 2 studies. The format is in vivo, human.
The test system of a further series is psoriatic arthritis. Put plainly: Phase 2 study in psoriatic arthritis (ACR20). Conditions: 30 mg; after 4 weeks; psoriatic arthritis patients. The format is in vivo, human. The source says:
As part of the clinical development program for oral Brepocitinib, a number of Phase 1 and Phase 2 studies have been completed or have a report in preparation. […] The multiple autoimmune diseases for which there is observed clinical efficacy data for Brepocitinib have mechanistic pathway similarities to DM. For example, psoriasis is driven by IL-17, which is downstream of IL-12 and IL-23 signaling via TYK2 and/or JAK1, and alopecia areata is characterized by excessive activity of IFN-γ, a type II interferon which also signals via JAK1. Of note, dose dependent reductions in IP-10 (CXCL10), an IFN-γ inducible gene, have been observed in Brepocitinib clinical studies, separating from placebo at doses ≥10 mg QD. Importantly, in these phase 2 studies, clinical response with Brepocitinib treatment rapidly separates from placebo. For example, in the phase 2 study assessing Brepocitinib's efficacy in psoriatic arthritis, Brepocitinib 30 mg achieved a 52% ACR20 response rate after 4 weeks compared to a 19% response rate in placebo patients.

Series [3] in a line: Solubility across physiological pH range. The format is physicochemical.
The test system of a further series is male rat. Put plainly: Fertility study in rats. The format is in vivo. As to conditions: 55 mg/kg/day. From the text:
Immunotoxicity and phototoxicity studies have also been conducted. Carcinogenicity studies in Tg mice (6 month) and rats (2 year) have been completed. […] Brepocitinib-related findings consistent with the mechanism of action (lower thymus weight and cellularity, infection) or not relevant to humans (exacerbation of chronic progressive nephropathy in the kidney) were also observed. Fertility studies in rats have been completed.

Series [4] concerns cytokine-induced phosphorylation of STATs in human PBMCs and whole blood. Put plainly: Cytokine-induced STAT phosphorylation. It counts as cell-based. From the text:
Pharmacology. Brepocitinib inhibits various TYK2- and JAK1-dependent functions in different cell types such as cytokine-induced phosphorylation of signal transducer and activator transcriptions (STATs) in human peripheral blood mononuclear cells (PBMCs) and whole blood; differentiation of T helper (Th) 1, Th17, and B cells, interleukin (IL)-12-induced IFNγ production in human PBMCs; and IFN-1 gene signature induced by immune complexes in human PBMCs.

Series [5] is described as follows: Tolerability in clinical studies to date. The format is in vivo, human. From the text:
Brepocitinib is being evaluated in a double-blind, randomized, placebo-controlled Phase 3 study in DM (NCT0543726; VALOR Study). With a planned enrollment of 225 subjects, the VALOR Study is the largest well-controlled trial in DM to date. Adult patients with definite or probable idiopathic inflammatory myopathy (IIM), who meet the subclassification criteria for DM, have both muscle and skin disease involvement (classic DM), and are receiving (or are not responsive to or are intolerant to) corticosteroids and/or immunomodulatory/immunosuppressive therapies are eligible to enroll. The primary endpoint is the total improvement score (TIS) at week 52. The TIS is a composite endpoint based on the following six CSM scores: the Physician Global Disease Activity, the Patient Global Disease Activity, the Health Assessment Questionnaire, MMT-8, Extramuscular Disease Activity, and muscle enzymes. To evaluate the steroid-sparing effect of Brepocitinib, participants using glucocorticoids at baseline must taper to an oral glucocorticoid dose of prednisone≤5 mg/day (or equivalent) by week 36.

The target in series [6] is breast cancer resistance protein (BCRP) (Homo sapiens, UniProt Q9UNQ0). Put plainly: In vitro transporter inhibition, BCRP.
Sequence of breast cancer resistance protein (BCRP) (Q9UNQ0 whole entry): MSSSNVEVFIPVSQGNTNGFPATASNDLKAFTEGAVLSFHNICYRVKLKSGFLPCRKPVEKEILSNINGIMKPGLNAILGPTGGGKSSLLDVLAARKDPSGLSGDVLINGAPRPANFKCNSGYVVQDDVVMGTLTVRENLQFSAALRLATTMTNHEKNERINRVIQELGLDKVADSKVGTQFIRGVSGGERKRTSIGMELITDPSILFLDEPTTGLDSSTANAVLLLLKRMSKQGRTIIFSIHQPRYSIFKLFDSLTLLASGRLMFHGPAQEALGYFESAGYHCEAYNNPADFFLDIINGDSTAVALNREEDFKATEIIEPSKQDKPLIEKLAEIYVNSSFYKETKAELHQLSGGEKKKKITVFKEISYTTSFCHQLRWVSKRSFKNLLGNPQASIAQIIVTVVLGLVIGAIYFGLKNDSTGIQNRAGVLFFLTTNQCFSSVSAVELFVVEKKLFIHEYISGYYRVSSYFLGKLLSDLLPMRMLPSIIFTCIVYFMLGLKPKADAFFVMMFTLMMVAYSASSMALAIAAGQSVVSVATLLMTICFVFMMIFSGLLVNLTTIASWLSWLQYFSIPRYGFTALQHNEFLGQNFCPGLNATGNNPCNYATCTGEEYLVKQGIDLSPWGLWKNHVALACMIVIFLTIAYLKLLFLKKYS
Series [7] deals with organic cation transporter (OCT) 1 (Homo sapiens, UniProt O15245). Put plainly: In vitro transporter inhibition, OCT1.
Sequence of organic cation transporter (OCT) 1 (O15245 whole entry): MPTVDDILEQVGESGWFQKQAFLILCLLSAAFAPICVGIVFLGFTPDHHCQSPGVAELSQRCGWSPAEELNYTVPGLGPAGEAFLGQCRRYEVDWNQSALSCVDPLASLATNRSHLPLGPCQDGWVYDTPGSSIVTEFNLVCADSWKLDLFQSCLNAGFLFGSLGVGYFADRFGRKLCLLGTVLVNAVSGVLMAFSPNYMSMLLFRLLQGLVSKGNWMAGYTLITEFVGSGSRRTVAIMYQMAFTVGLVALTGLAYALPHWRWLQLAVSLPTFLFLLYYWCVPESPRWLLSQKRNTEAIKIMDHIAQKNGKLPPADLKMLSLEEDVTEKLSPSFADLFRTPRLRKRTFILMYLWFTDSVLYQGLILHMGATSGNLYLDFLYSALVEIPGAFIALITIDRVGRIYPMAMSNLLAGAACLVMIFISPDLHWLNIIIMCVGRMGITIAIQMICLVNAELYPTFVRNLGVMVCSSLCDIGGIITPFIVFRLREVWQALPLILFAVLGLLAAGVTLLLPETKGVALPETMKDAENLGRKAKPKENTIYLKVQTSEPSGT
A short description of series [8]: Cardiovascular safety pharmacology studies. As to conditions: oral administration.

The structures appear in SMILES notation.

As to `Cn1cc(Nc2nccc(N3C[C@H]4CC[C@@H](C3)N4C(=O)[C@@H]3CC3(F)F)n2)cn1` [Brepocitinib, [(1S)-2,2-difluorocyclo-propyl][(1R,5S)-3-{2-[(1-methyl-1H-pyrazol-4-yl)amino]pyrimidin-4-yl}-3,8-diazabicyclo[3.2.1]oct-8-yl]methanone], the “mean myosin surface area” value in [1] (130 nM preincubation 1 hour) is reported as 94.1 % of the vehicle control; in [1] (1 μM preincubation 1 hour), 100 % of the vehicle control. In addition, the “IFN-I induced damage in myotubes” value in [1] (Brepocitinib preincubation, 130 nM and 1 μM) was “almost completely prevented”. Further, the “dose resulting in 50% maximal response” value in [2] is given as 15 mg QD. In addition, the ACR20 response rate with psoriatic arthritis turned out to be 52%. Moreover, the “Solubility in 250 mL of the media” value in series [3] is listed as “fully soluble”. The Solubility entry in [3] (across the physiological pH range) is “highly soluble”. Moreover, the “effects on male rat fertility” value in the series on male rat (highest dose tested) is on record as “No adverse effects”. In addition, the “margin to clinical exposures at highest dose tested” value in the series with male rat (male rat fertility) is listed as over 50 fold. Besides, the “cytokine-induced phosphorylation of STATs” value in series [4] was “inhibits”. Further, in [5], the tolerability result was “generally well-tolerated”. In addition, the “radiolabeled dose recovered as unchanged Brepocitinib in the urine” value (human, in vivo) is reported as “Approximately 8%”. Under “human, in vivo, po”, the “radiolabeled dose recovered as Brepocitinib metabolites in the urine” value is “Approximately 80%”. Besides, where the note is “not told”, the Permeability entry is “highly permeable”. Besides, the “In vitro inhibition of BCRP” value in [6] is “inhibition”. In addition, in [7], the “In vitro inhibition of OCT1” value is “inhibition”. For the same compound, the “cardiovascular safety pharmacology findings” value in series [8] was “effects on blood pressure, heartrate, and corrected QT interval (QTc) interval were observed”.
